Earlier results in patent publication US20100130528A1, “ADAMANTANE MODULATORS OF NMDA RECEPTOR AND/OR 5HT3 RECEPTOR” (AUSPEX PHARMACEUTICALS, INC., priority 2008, published 2010).

Legend:
[1] = in man
[2] = in vivo

- circulating memantine-related material present as the parent compound [1]: about 80%
SMILES: CC12CC3CC(C)(C1)CC(N)(C3)C2 [memantine, 1-amino-3,5-dimethyl-adamantane]
- cytochrome P450 catalysed metabolism (cytochrome P450): No cytochrome P450 catalysed metabolism has been detected
- adverse effects [2]: fatigue, pain, hypertension, dizziness, headache, constipation, vomiting, confusion, somnolence, hallucination, cough, and dyspnea
